What was measured:
[1] = test system: monocotyledonous and dicotyledonous weeds; assay: Pre-emergence test experiment (weeds); format: in vivo; design: key: 9: completely dead; 8: growth control rate is greater than or equal to 90% and less than 100%; 7: growth control rate is greater than or equal to 80% and less than 90%; 6: growth control rate is greater than or equal to 70% and less than 80%; growth control rate is greater than or equal to 50% and less than 70%; 4: growth control rate is greater than or equal to 30% and less than 50%; growth control rate is greater than or equal to 20% and less than 30%; growth control rate is greater than or equal to 10% and less than 20%; growth control rate is less than 10%; 0: no effect; conditions: 30 g a.i./ha
major crops = assay: Pre-emergence test experiment (crops); format: in vivo; design: key: 9: completely dead; 8: growth control rate is greater than or equal to 90% and less than 100%; 7: growth control rate is greater than or equal to 80% and less than 90%; 6: growth control rate is greater than or equal to 70% and less than 80%; growth control rate is greater than or equal to 50% and less than 70%; 4: growth control rate is greater than or equal to 30% and less than 50%; growth control rate is greater than or equal to 20% and less than 30%; growth control rate is greater than or equal to 10% and less than 20%; growth control rate is less than 10%; 0: no effect; conditions: 30 g a.i./ha

## CCc1ccc(-n2cnc(C(F)F)n2)nc1Oc1cccc(C(F)(F)F)c1 [Compound 72]
[1]
  Pre-emergence activity level (growth control rate) on Amaranthus retroflexus: 9
  Pre-emergence activity level (growth control rate) on Descurainia sophia: 9
  Pre-emergence activity level (growth control rate) on Digitaria sanguinalis: 7 (growth control rate is greater than or equal to 80% and less than 90%)
  Pre-emergence activity level (growth control rate) on Setaria viridis: 8 (growth control rate is greater than or equal to 90% and less than 100%)
  Pre-emergence activity level (growth control rate) on Solanum nigrum: 9
  Pre-emergence activity level (growth control rate) on Veronica: 9
Major crops
  Pre-emergence plant damage level (growth control rate) on Corn: 0
  Pre-emergence plant damage level (growth control rate) on Cotton: 0
  Pre-emergence plant damage level (growth control rate) on Soybean: 0

## CCc1ccc(-n2cnc(C(F)F)n2)nc1Oc1cccc(OC(F)(F)F)c1 [Compound 73]
[1]
  Pre-emergence activity level (growth control rate) on Amaranthus retroflexus: 9
  Pre-emergence activity level (growth control rate) on Descurainia sophia: 9
  Pre-emergence activity level (growth control rate) on Digitaria sanguinalis: 8 (growth control rate is greater than or equal to 90% and less than 100%)
  Pre-emergence activity level (growth control rate) on Setaria viridis: 8 (growth control rate is greater than or equal to 90% and less than 100%)
  Pre-emergence activity level (growth control rate) on Solanum nigrum: 9
  Pre-emergence activity level (growth control rate) on Veronica: 9
Major crops
  Pre-emergence plant damage level (growth control rate) on Corn: 0
  Pre-emergence plant damage level (growth control rate) on Cotton: 0
  Pre-emergence plant damage level (growth control rate) on Soybean: 0

## CCc1ccc(-n2cnc(C(F)F)n2)nc1Oc1cncc(C(F)(F)F)c1 [Compound 74]
[1]
  Pre-emergence activity level (growth control rate) on Amaranthus retroflexus: 9
  Pre-emergence activity level (growth control rate) on Descurainia sophia: 9
  Pre-emergence activity level (growth control rate) on Digitaria sanguinalis: 9
  Pre-emergence activity level (growth control rate) on Setaria viridis: 8 (growth control rate is greater than or equal to 90% and less than 100%)
  Pre-emergence activity level (growth control rate) on Solanum nigrum: 9
  Pre-emergence activity level (growth control rate) on Veronica: 9
Major crops
  Pre-emergence plant damage level (growth control rate) on Corn: 0
  Pre-emergence plant damage level (growth control rate) on Cotton: 0
  Pre-emergence plant damage level (growth control rate) on Soybean: 0

## Cc1ccc(-n2cnc(C(F)(F)F)n2)nc1Oc1ccc(F)c(OC(F)F)c1 [Compound 75]
[1]
  Pre-emergence activity level (growth control rate) on Amaranthus retroflexus: 9
  Pre-emergence activity level (growth control rate) on Descurainia sophia: 9
  Pre-emergence activity level (growth control rate) on Digitaria sanguinalis: 9
  Pre-emergence activity level (growth control rate) on Setaria viridis: 9
  Pre-emergence activity level (growth control rate) on Solanum nigrum: 9
  Pre-emergence activity level (growth control rate) on Veronica: 9
Major crops
  Pre-emergence plant damage level (growth control rate) on Corn: 0
  Pre-emergence plant damage level (growth control rate) on Cotton: 0
  Pre-emergence plant damage level (growth control rate) on Soybean: 0

## COc1cc(Oc2ccc(F)c(C(F)(F)F)c2)nc(-n2cnc(C(F)(F)F)n2)c1 [Compound 76]
[1]
  Pre-emergence activity level (growth control rate) on Amaranthus retroflexus: 9
  Pre-emergence activity level (growth control rate) on Descurainia sophia: 9
  Pre-emergence activity level (growth control rate) on Digitaria sanguinalis: 9
  Pre-emergence activity level (growth control rate) on Setaria viridis: 8 (growth control rate is greater than or equal to 90% and less than 100%)
  Pre-emergence activity level (growth control rate) on Solanum nigrum: 9
  Pre-emergence activity level (growth control rate) on Veronica: 9
Major crops
  Pre-emergence plant damage level (growth control rate) on Corn: 0
  Pre-emergence plant damage level (growth control rate) on Cotton: 0
  Pre-emergence plant damage level (growth control rate) on Soybean: 0

## COCc1ccc(-n2cnc(C(F)(F)C(F)(F)F)n2)nc1Oc1cccc(OC(F)(F)F)c1 [Compound 77]
[1]
  Pre-emergence activity level (growth control rate) on Amaranthus retroflexus: 9
  Pre-emergence activity level (growth control rate) on Descurainia sophia: 9
  Pre-emergence activity level (growth control rate) on Digitaria sanguinalis: 8 (growth control rate is greater than or equal to 90% and less than 100%)
  Pre-emergence activity level (growth control rate) on Setaria viridis: 8 (growth control rate is greater than or equal to 90% and less than 100%)
  Pre-emergence activity level (growth control rate) on Solanum nigrum: 7 (growth control rate is greater than or equal to 80% and less than 90%)
  Pre-emergence activity level (growth control rate) on Veronica: 9
Major crops
  Pre-emergence plant damage level (growth control rate) on Corn: 0
  Pre-emergence plant damage level (growth control rate) on Cotton: 0
  Pre-emergence plant damage level (growth control rate) on Soybean: 0

## COc1cc(Oc2cccc(OC(F)(F)F)c2)nc(-n2cnc(C(F)(F)F)n2)c1 [Compound 78]
[1]
  Pre-emergence activity level (growth control rate) on Amaranthus retroflexus: 9
  Pre-emergence activity level (growth control rate) on Descurainia sophia: 9
  Pre-emergence activity level (growth control rate) on Digitaria sanguinalis: 9
  Pre-emergence activity level (growth control rate) on Setaria viridis: 8 (growth control rate is greater than or equal to 90% and less than 100%)
  Pre-emergence activity level (growth control rate) on Solanum nigrum: 8 (growth control rate is greater than or equal to 90% and less than 100%)
  Pre-emergence activity level (growth control rate) on Veronica: 9
Major crops
  Pre-emergence plant damage level (growth control rate) on Corn: 0
  Pre-emergence plant damage level (growth control rate) on Cotton: 0
  Pre-emergence plant damage level (growth control rate) on Soybean: 0

## Cc1ccc(-n2cnc(C(F)F)n2)nc1Oc1cccc(OC(F)F)c1 [Compound 79]
[1]
  Pre-emergence activity level (growth control rate) on Amaranthus retroflexus: 9
  Pre-emergence activity level (growth control rate) on Descurainia sophia: 9
  Pre-emergence activity level (growth control rate) on Digitaria sanguinalis: 9
  Pre-emergence activity level (growth control rate) on Setaria viridis: 9
  Pre-emergence activity level (growth control rate) on Solanum nigrum: 8 (growth control rate is greater than or equal to 90% and less than 100%)
  Pre-emergence activity level (growth control rate) on Veronica: 9
Major crops
  Pre-emergence plant damage level (growth control rate) on Corn: 0
  Pre-emergence plant damage level (growth control rate) on Cotton: 0
  Pre-emergence plant damage level (growth control rate) on Soybean: 0

## Cc1ccc(-n2cnc(C(F)F)n2)nc1Oc1ccc(F)c(OC(F)(F)F)c1 [Compound 80]
[1]
  Pre-emergence activity level (growth control rate) on Amaranthus retroflexus: 9
  Pre-emergence activity level (growth control rate) on Descurainia sophia: 9
  Pre-emergence activity level (growth control rate) on Digitaria sanguinalis: 9
  Pre-emergence activity level (growth control rate) on Setaria viridis: 8 (growth control rate is greater than or equal to 90% and less than 100%)
  Pre-emergence activity level (growth control rate) on Solanum nigrum: 9
  Pre-emergence activity level (growth control rate) on Veronica: 9
Major crops
  Pre-emergence plant damage level (growth control rate) on Corn: 0
  Pre-emergence plant damage level (growth control rate) on Cotton: 0
  Pre-emergence plant damage level (growth control rate) on Soybean: 0

## Cc1ccc(-n2cnc(C(F)F)n2)nc1Oc1cccc(OC(F)(F)F)c1 [Compound 83]
[1]
  Pre-emergence activity level (growth control rate) on Amaranthus retroflexus: 9
  Pre-emergence activity level (growth control rate) on Descurainia sophia: 9
  Pre-emergence activity level (growth control rate) on Digitaria sanguinalis: 9
  Pre-emergence activity level (growth control rate) on Setaria viridis: 9
  Pre-emergence activity level (growth control rate) on Solanum nigrum: 9
  Pre-emergence activity level (growth control rate) on Veronica: 9
Major crops
  Pre-emergence plant damage level (growth control rate) on Corn: 0
  Pre-emergence plant damage level (growth control rate) on Cotton: 0
  Pre-emergence plant damage level (growth control rate) on Soybean: 0

## Cc1ccc(-n2cnc(C(F)F)n2)nc1Oc1cccc(C(F)F)c1 [Compound 84]
[1]
  Pre-emergence activity level (growth control rate) on Amaranthus retroflexus: 9
  Pre-emergence activity level (growth control rate) on Descurainia sophia: 9
  Pre-emergence activity level (growth control rate) on Digitaria sanguinalis: 9
  Pre-emergence activity level (growth control rate) on Setaria viridis: 9
  Pre-emergence activity level (growth control rate) on Solanum nigrum: 9
  Pre-emergence activity level (growth control rate) on Veronica: 9
Major crops
  Pre-emergence plant damage level (growth control rate) on Corn: 0
  Pre-emergence plant damage level (growth control rate) on Cotton: 0
  Pre-emergence plant damage level (growth control rate) on Soybean: 0

## CCc1ccc(-n2cnc(C(F)(F)F)n2)nc1Oc1cccc(CF)c1 [Compound 85]
[1]
  Pre-emergence activity level (growth control rate) on Amaranthus retroflexus: 9
  Pre-emergence activity level (growth control rate) on Veronica: 9
Major crops
  Pre-emergence plant damage level (growth control rate) on Corn: 0
  Pre-emergence plant damage level (growth control rate) on Cotton: 0
  Pre-emergence plant damage level (growth control rate) on Soybean: 0

## CCc1ccc(-n2cnc(C(F)(F)F)n2)nc1Oc1ccc(F)c(OC(F)F)c1 [Compound 132]
[1]
  Pre-emergence activity level (growth control rate) on Amaranthus retroflexus: 9
  Pre-emergence activity level (growth control rate) on Descurainia sophia: 9
  Pre-emergence activity level (growth control rate) on Digitaria sanguinalis: 9
  Pre-emergence activity level (growth control rate) on Setaria viridis: 9
  Pre-emergence activity level (growth control rate) on Solanum nigrum: 9
  Pre-emergence activity level (growth control rate) on Veronica: 9
Major crops
  Pre-emergence plant damage level (growth control rate) on Corn: 0
  Pre-emergence plant damage level (growth control rate) on Cotton: 0
  Pre-emergence plant damage level (growth control rate) on Soybean: 0

## CCc1ccc(-n2cnc(C(F)(F)F)n2)nc1Oc1cccc(OC(F)F)c1 [Compound 133]
[1]
  Pre-emergence activity level (growth control rate) on Amaranthus retroflexus: 9
  Pre-emergence activity level (growth control rate) on Descurainia sophia: 9
  Pre-emergence activity level (growth control rate) on Digitaria sanguinalis: 9
  Pre-emergence activity level (growth control rate) on Setaria viridis: 9
  Pre-emergence activity level (growth control rate) on Solanum nigrum: 9
  Pre-emergence activity level (growth control rate) on Veronica: 9
Major crops
  Pre-emergence plant damage level (growth control rate) on Corn: 0
  Pre-emergence plant damage level (growth control rate) on Cotton: 0
  Pre-emergence plant damage level (growth control rate) on Soybean: 0

## CCc1ccc(-n2cnc(C(F)(F)F)n2)nc1Oc1ccc(F)c(C(F)(F)F)c1 [Compound 135]
[1]
  Pre-emergence activity level (growth control rate) on Amaranthus retroflexus: 9
  Pre-emergence activity level (growth control rate) on Descurainia sophia: 9
  Pre-emergence activity level (growth control rate) on Digitaria sanguinalis: 9
  Pre-emergence activity level (growth control rate) on Setaria viridis: 9
  Pre-emergence activity level (growth control rate) on Solanum nigrum: 9
  Pre-emergence activity level (growth control rate) on Veronica: 9
Major crops
  Pre-emergence plant damage level (growth control rate) on Corn: 0
  Pre-emergence plant damage level (growth control rate) on Cotton: 0
  Pre-emergence plant damage level (growth control rate) on Soybean: 0

Reference: patent US20260305610A1, “TRIAZOLE COMPOUND, AND PREPARATION METHOD THEREFOR, HERBICIDAL COMPOSITION AND USE THEREOF” (QINGDAO KINGAGROOT CHEMICAL COMPOUND CO., LTD., priority 2023, published 2026)
